Structures can show the parent of a compound that is named as a salt.
Columns and labels:
human CB1 receptor [1] = molecular target: T1, human CB1 receptor (Homo sapiens, UniProt P21554); assay: Human CB1 receptor binding, [3H] CP-55,940 displacement on HEK cell membranes; set-up: expressed in transfected cells; membranes; conditions: [3H] CP-55,940 500 pM
Protocol: The Human CB1 receptor binding affinity and other biological activities of the compounds of this invention are determined by the following procedures.
Membrane preparation: Human Embryonic Kidney (HEK) Cells expressing the human CB1 receptor under transcriptional regulation of a tetracycline inducible promoter were grown in Dulbecco's Modified Essential Medium with sodium pyruvate (Invitrogen, Carlsbad, Calif.) containing 10% tetracycline free fetal bovine serum (Clonetech, Mountain View, Calif.) 100 μg/ml hygromycin (Calbiochem, San Diego, Calif.), 5 μg/ml blasticidin (Invitrogen). CB1 receptor expression was induced by addition of 1 μg/ml doxycycline (Calbiochem) and incubation for an additional 24 hours. Cells were released from flasks using Cell Dissociation Buffer (Invitrogen). Cells were pelleted by centrifugation at 500×G for 5 minutes. Membranes were prepared by resuspending cells in ice cold TEE Buffer (25 mM Tris pH 7.4, 5 mM EDTA, 5 mM EGTA, Complete Protease Inhibitor (Roche, Basel, Switzerland)). Cells were lysed with 12 strokes of a dounce homogenizer. Unlysed cells were pelleted by centrifugation at 500×G for 5 minutes. Membranes were pelleted by centrifugation at 25,000×G for 30 minutes. Membranes were resuspended in TEE, dounced 12 strokes, and pelleted a second time at 25,000×G for 30 minutes. Membrane pellet was resuspended in 50 mM Tris pH 7.4, 100 mM NaCl, 3 mM MgCl2, 0.2 mM EGTA, Complete Protease Inhibitor (Roche). Protein concentration was determined using the Micro-BCA Protein Assay Kit (Pierce, Rockford, Ill.) using BSA as a standard. Membranes were quick frozen and stored at −80 degrees Celsius until use. Binding experiments: 50 μl of test compound was incubated with 50 μl, of [^3H] CP-55,940 (Perkin Elmer, Boston, Mass.) (final concentration 500 pM) and 150 μl of membrane homogenate (1 μg/well) in polypropylene 96-well plates (Corning, Acton, Mass.). Final reaction conditions were 50 mM Tris pH 7.4, 100 mM NaCl, 3 mM MgCl2, 0.2 mM EGTA, 0.04% BSA. Nonspecific binding was determined by incubation with 50 μM WIN-55,212-2 (Tocris, Ellisville, Mo.). After incubation at room temperature for 60 minutes reactions were harvested by vacuum filtration through Unifilter GF/B-96 filters (Perkin Elmer) that had been presoaked in assay buffer containing 0.5% BSA (Sigma, St. Louis, Mo.) using a FilterMate Plate Harvester (Perkin Elmer). Filters were rinsed 4 times with 50 mM Tris pH 7.4, 0.025% Tween20 and dried at 50 degrees Celsius for at least 30 minutes. 40 μl of Microscint-20 (Perkin Elmer) was added per well, and plates were counted using a Top-Count Microplate Scintillation Counter (Perkin Elmer). Binding data were analyzed and EC50 and Ki values calculated using Graph Pad Prism 4.0 Software.

human CB1 receptor [2] = molecular target: T1, human CB1 receptor; assay: GTPγS binding on membranes of CHO cells expressing the human CB1 receptor; format: biochemical; set-up: expressed in transfected cells; host or cells: CHO cells (G418 selection); membranes; conditions: CHO cell membranes, [35S] GTPγS
Protocol: Membrane preparation: CHO cells expressing the human CB1 receptor were grown to 80% confluence in Ham's F-12 Nutrient Medium (Invitrogen) containing 10% fetal bovine serum (Invitrogen), 1% pen/strep (Invitrogen), 1% Nonessential amino acids (Invitrogen) and 500 μg/ml G418 (Invitrogen). Cells were released from flasks using Cell Dissociation Buffer (Invitrogen). Cells were pelleted by centrifugation at 500×G for 5 minutes. Membranes were prepared by resuspending cells in ice cold Assay Buffer (25 mM Tris pH 7.4, 5 mM EDTA, 5 mM EGTA, Complete Protease Inhibitor (Roche)). Cells were lysed with 12 strokes of a dounce homogenizer. Unlysed cells were pelleted by centrifugation at 500×G for 5 minutes. Membranes were pelleted by centrifugation at 25,000×G for 30 minutes. Membranes were resuspended in TEE, dounced 12 strokes, and pelleted a second time at 25,000×G for 30 minutes. Membrane pellet was resuspended in 50 mM Tris pH 7.4, 100 mM NaCl, 3 mM MgCl2, 0.2 mM EGTA, Complete Protease Inhibitor (Roche). Protein concentration was determined using the Micro-BCA Protein Assay Kit (Pierce) using BSA as a standard. Membranes were frozen and stored at −80 degrees Celsius until use. GTPγS Binding: 40 μl of test compound was incubated with 20 μl of [^35S] GTPγS (Perkin Elmer) (1250 Ci/millimole) and 140 μl of membrane homogenate (5 ug/well) in polypropylene 96-well plates (Corning). Final reaction conditions were 50 mM Tris pH 7.4, 100 mM NaCl, 3 mM […], 0.2 mM EGTA, 0.04% BSA. After incubation at 37 degrees Celsius for 45 minutes reactions were harvested by vacuum filtration through Unifilter GF/B-96 filters (Perkin Elmer) using a FilterMate Plate Harvester (Perkin Elmer). Filters were rinsed 4 times with ice cold 50 mM Tris pH 7.4, 3 mM MgCl2, 0.2 mM EGTA and dried at 50 degrees Celsius for at least 30 minutes. 40 μl of Microscint-20 (Perkin Elmer) was added per well, and plates were counted using a Top-Count Microplate Scintillation Counter (Perkin Elmer). Binding data were analyzed and EC50 values were calculated using Graph Pad Prism 4.0 Software.

T1 sequence (P21554 whole entry): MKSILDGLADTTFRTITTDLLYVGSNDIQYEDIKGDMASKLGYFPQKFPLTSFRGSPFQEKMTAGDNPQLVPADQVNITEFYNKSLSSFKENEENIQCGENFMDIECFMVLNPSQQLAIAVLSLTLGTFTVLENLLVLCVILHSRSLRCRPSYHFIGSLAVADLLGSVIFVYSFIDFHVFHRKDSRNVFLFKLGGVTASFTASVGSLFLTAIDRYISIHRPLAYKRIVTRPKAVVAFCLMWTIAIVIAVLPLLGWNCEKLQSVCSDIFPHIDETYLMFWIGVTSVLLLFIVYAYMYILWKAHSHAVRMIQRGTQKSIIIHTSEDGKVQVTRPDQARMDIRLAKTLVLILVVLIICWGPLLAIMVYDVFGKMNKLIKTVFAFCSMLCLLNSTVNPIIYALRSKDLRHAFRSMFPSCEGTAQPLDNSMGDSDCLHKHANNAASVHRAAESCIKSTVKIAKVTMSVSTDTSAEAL

Cc1cccc2c1n(CCS(C)(=O)=O)c(=O)n2C(=O)N[C@H](C(=O)N(C)C)C(C)(C)C showed a melting point of 190.7 °C.
With CC[C@H](C)[C@H](NC(=O)n1c(=O)n(CCN2CCCCC2)c2ccccc21)C(N)=O (as salt: hydrochloride) the melting point was 217.1 °C.
In the case of CC(C)(C)[C@H](NC(=O)n1c(=O)n(CCCC(F)(F)F)c2ccccc21)C(N)=O [Example 293], the Ki (human CB1 receptor [1]) is reported as 1.45 nM and the EC50 (human CB1 receptor [2]) is reported as 32.4 nM.
Molecule CC(C)(C)[C@H](NC(=O)n1c(=O)n(CC2CCOCC2)c2ccccc21)C(=O)NC1CC1 [Example 298] has a Ki (human CB1 receptor [1]) of 5.27 nM and an EC50 (human CB1 receptor [2]) of 88.6 nM.
For CC(C)(C)[C@H](NC(=O)n1c(=O)n(CC2CCOCC2)c2ccccc21)C(=O)NC1CCC1 [Example 300], the Ki (human CB1 receptor [1]) was 41 nM and the EC50 (human CB1 receptor [2]) was 260 nM.
Molecule CC(C)(C)[C@@H](CO)NC(=O)n1c(=O)n(CC2CCOCC2)c2cc(F)ccc21 [Example 301] has a Ki (human CB1 receptor [1]) of 5.25 nM and an EC50 (human CB1 receptor [2]) of 268 nM.
In the case of CC(C)(C)[C@H](NC(=O)n1c(=O)n(CC2CCOCC2)c2ccccc21)C(=O)NCC(N)=O [Example 302], the Ki (human CB1 receptor [1]) is reported as 82.3 nM and the EC50 (human CB1 receptor [2]) is reported as 407 nM.
For CNC(=O)[C@@H](NC(=O)n1c(=O)n(CC2CCOCC2)c2ccccc21)C(C)(C)C [Example 303], the Ki (human CB1 receptor [1]) was 5.71 nM and the EC50 (human CB1 receptor [2]) was 36.6 nM.
CC(C)(C)[C@H](NC(=O)n1c(=O)n(CC2CC=C(F)CC2)c2ccccc21)C(N)=O (some centres unmarked) [Example 304] showed a Ki (human CB1 receptor [1]) of 0.15 nM and an EC50 (human CB1 receptor [2]) of 0.87 nM.
Molecule CC(C)(C)[C@H](NC(=O)n1c(=O)n(CC2CCC(F)(F)CC2)c2ccccc21)C(N)=O [Example 306] has a Ki (human CB1 receptor [1]) of 0.31 nM and an EC50 (human CB1 receptor [2]) of 3.45 nM.
Molecule CC(C)(C)[C@H](NC(=O)n1c(=O)n(CC2CCCCC2)c2cc(Br)ccc21)C(N)=O [Example 307] has a Ki (human CB1 receptor [1]) of 1.85 nM and an EC50 (human CB1 receptor [2]) of 49.5 nM.
Molecule CC(C)(C)[C@@H](CO)NC(=O)n1c(=O)n(CC2CCCCC2)c2cc(Br)ccc21 [Example 308] has a Ki (human CB1 receptor [1]) of 5.38 nM and an EC50 (human CB1 receptor [2]) of 20.5 nM.
Molecule CC(C)(C)[C@H](NC(=O)n1c(=O)n(CC2CCOCC2)c2cc(F)ccc21)C(=O)NC1CC1 [Example 310] has a Ki (human CB1 receptor [1]) of 30.2 nM and an EC50 (human CB1 receptor [2]) of 173 nM.
With Cc1cc(CNC(=O)n2c(=O)n(CC3CCOCC3)c3ccccc32)c(C)o1 [Example 311] the Ki (human CB1 receptor [1]) was 2.03 nM and the EC50 (human CB1 receptor [2]) was 57 nM.
For Cc1cc(CNC(=O)n2c(=O)n(CC3CCOCC3)c3ccccc32)no1 [Example 312], the Ki (human CB1 receptor [1]) was 69.5 nM and the EC50 (human CB1 receptor [2]) was 380 nM.
In the case of CC(C)(C)[C@H](NC(=O)n1c(=O)n(CC2CCOCC2)c2ccccc21)C(=O)NCCO [Example 317], the Ki (human CB1 receptor [1]) is reported as 12 nM and the EC50 (human CB1 receptor [2]) is reported as 83.6 nM.
Work on CC(C)(C)[C@H](NC(=O)n1c(=O)n(CC2CCOCC2)c2ccccc21)C(=O)NCCCO [Example 318] yielded a Ki (human CB1 receptor [1]) of 23.9 nM and an EC50 (human CB1 receptor [2]) of 230 nM.
CC(C)(C)[C@H](NC(=O)n1c(=O)n(CC2CCOCC2)c2ccccc21)c1nnc(N)o1 [Example 319] showed a Ki (human CB1 receptor [1]) of 5.17 nM and an EC50 (human CB1 receptor [2]) of 96.3 nM.
With Cc1cc(CNC(=O)n2c(=O)n(CC3CCOCC3)c3ccccc32)c(C(F)(F)F)o1 [Example 320] the Ki (human CB1 receptor [1]) was 4.2 nM and the EC50 (human CB1 receptor [2]) was 98.6 nM.
In the case of CCc1nc(CNC(=O)n2c(=O)n(CC3CCOCC3)c3ccccc32)no1 [Example 327], the Ki (human CB1 receptor [1]) is reported as 36 nM and the EC50 (human CB1 receptor [2]) is reported as greater than 10000 nM.
In the case of CCc1nc(CNC(=O)n2c(=O)n(CC3CCOCC3)c3ccccc32)cs1 [Example 328], the Ki (human CB1 receptor [1]) is reported as 5.94 nM and the EC50 (human CB1 receptor [2]) is reported as 167 nM.
In the case of O=C(NCc1ccoc1)n1c(=O)n(CC2CCOCC2)c2ccccc21 [Example 329], the Ki (human CB1 receptor [1]) is reported as 28 nM and the EC50 (human CB1 receptor [2]) is reported as 606 nM.
In the case of Cc1nc(C)c(CNC(=O)n2c(=O)n(CC3CCOCC3)c3ccccc32)s1 [Example 337], the Ki (human CB1 receptor [1]) is reported as 12.1 nM and the EC50 (human CB1 receptor [2]) is reported as 6490 nM.
For Cc1nc(CNC(=O)n2c(=O)n(CC3CCOCC3)c3ccccc32)cs1 [Example 341], the Ki (human CB1 receptor [1]) was 24.7 nM and the EC50 (human CB1 receptor [2]) was 355 nM.
Work on CC(C)(C)[C@H](NC(=O)n1c(=O)n(CC2CCOCC2)c2ccccc21)C(=O)NC[C@H](O)CO [Example 345] yielded a Ki (human CB1 receptor [1]) of 52.8 nM and an EC50 (human CB1 receptor [2]) of 1150 nM.
Molecule CC(C)(C)[C@H](NC(=O)n1c(=O)n(CC2CCOCC2)c2cc(F)ccc21)c1nnc(N)o1 [Example 347] has a Ki (human CB1 receptor [1]) of 9.5 nM and an EC50 (human CB1 receptor [2]) of 229 nM.
CC(C)(C)[C@H](NC(=O)n1c(=O)n(Cc2ccccc2)c2ccccc21)C(N)=O [Example 348] gave a Ki (human CB1 receptor [1]) of 5.64 nM and an EC50 (human CB1 receptor [2]) of 60.1 nM.
With Cc1nc(C(F)(F)F)c(CNC(=O)n2c(=O)n(CC3CCOCC3)c3ccccc32)s1 [Example 349] the Ki (human CB1 receptor [1]) was 19.1 nM and the EC50 (human CB1 receptor [2]) was 157 nM.
In the case of Cc1nc(C(C)NC(=O)n2c(=O)n(CC3CCOCC3)c3ccccc32)cs1 (centres unmarked) [Example 350], the Ki (human CB1 receptor [1]) is reported as 13.4 nM and the EC50 (human CB1 receptor [2]) is reported as 131 nM.
Work on CC(C)(C)[C@H](NC(=O)n1c(=O)n(CC2CCOCC2)c2cc(F)ccc21)C(=O)NCCCO [Example 355] yielded a Ki (human CB1 receptor [1]) of 6.72 nM and an EC50 (human CB1 receptor [2]) of 361 nM.
CC(C)(C)[C@H](NC(=O)n1c(=O)n(CC2CCOCC2)c2cc(F)ccc21)C(=O)NCCO [Example 356] gave a Ki (human CB1 receptor [1]) of 16.6 nM and an EC50 (human CB1 receptor [2]) of 219 nM.
With CC(C)(C)[C@H](NC(=O)n1c(=O)n(Cc2ccccc2F)c2ccccc21)C(N)=O [Example 357] the Ki (human CB1 receptor [1]) was 2.4 nM and the EC50 (human CB1 receptor [2]) was 123 nM.
With CC(C)(C)[C@H](NC(=O)n1c(=O)n(Cc2ccccc2)c2ccccc21)c1nnc(N)o1 [Example 359] the Ki (human CB1 receptor [1]) was 3.06 nM and the EC50 (human CB1 receptor [2]) was 79.2 nM.
CC(C)(C)[C@H](NC(=O)n1c(=O)n(Cc2ccccc2)c2ccccc21)C(=O)NCCO [Example 360] showed a Ki (human CB1 receptor [1]) of 19.3 nM and an EC50 (human CB1 receptor [2]) of 149 nM.
In the case of CC(C)(C)[C@H](NC(=O)n1c(=O)n(Cc2ccccc2)c2ccccc21)C(=O)NCCCO [Example 361], the Ki (human CB1 receptor [1]) is reported as 24.7 nM and the EC50 (human CB1 receptor [2]) is reported as 249 nM.
For CC(C)(C)[C@H](NC(=O)n1c(=O)n(Cc2cccc(F)c2)c2ccccc21)C(N)=O [Example 362], the Ki (human CB1 receptor [1]) was 3.7 nM and the EC50 (human CB1 receptor [2]) was 106 nM.
In the case of CC(C)(C)[C@H](NC(=O)n1c(=O)n(Cc2ccc(F)cc2)c2ccccc21)C(N)=O [Example 363], the Ki (human CB1 receptor [1]) is reported as 0.36 nM and the EC50 (human CB1 receptor [2]) is reported as 4.74 nM.
With CCCCCn1c(=O)n(C(=O)N[C@H](C(N)=O)C(C)(C)C)c2cccnc21 [Example 365] the Ki (human CB1 receptor [1]) was 95.1 nM and the EC50 (human CB1 receptor [2]) was 1030 nM.

Source: patent US20090298811A1, “BENZIMIDAZOLONE DERIVATIVES” (Pfizer Inc, priority 2006, published 2009)
